Experimental data as given in US11180510B2, “Xanthine derivatives and uses thereof as inhibitors of bromodomains of BET proteins” (Centre national de la recherche scientifique, priority 2017, dated 2021).

What was measured:
Brdt(BD1) = molecular target: T1, Brdt(BD1) (Homo sapiens, UniProt Q58F21); assay: HTRF BET selectivity profile, Brdt(BD1); format: binding
T1 construct: GST tagged bromodomain proteins were purchased from BPS Bioscience; purchased BPS Bioscience
Summary of the method: (§1)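 HTRF peptide-displacement assay with GST-tagged bromodomains and histone peptide, 0.5% final DMSO, incubated 3 h, 6 h or overnight at room temperature or 4 °C depending on bromodomain. 665/620 nm ratio read; inhibition scaled between DMSO and no-peptide controls, IC50 in triplicate.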

Brd3(BD2) = molecular target: T2, Brd3(BD2) (Homo sapiens, UniProt Q15059); assay: HTRF BET selectivity profile, Brd3(BD2); format: binding
T2 construct: GST tagged bromodomain proteins were purchased from BPS Bioscience; purchased BPS Bioscience
Summary of the method: as §1

BRD4(BD1) = BRD4(BD1) (Homo sapiens, UniProt O60885); assay: Isothermal Titration Calorimetry; format: binding; settings: Brd4 (BD1), FIG. 1; read-out: KD by ITC (orthogonal assay)
Summary of the method: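 […]; general protocol uses 13 injections at 25° C, with protein titrant at 10–15× the compound concentration. Integrated heats fitted to a one-site model for ΔH and KA, with ΔG and TΔS derived from these.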

Jurkat cells = assay: Cell Titer-Glo cell viability assay, Jurkat; format: cell-based; settings: Homo sapiens, 72 h, mean of three experiments, NA = IC50 > maximal concentration used
Summary of the method: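 Jurkat was grown in RPMI-1640 and Molm14 in MEMα, both with 10% FBS. Viability was read by CellTiter-Glo luminescence, and EC50 was obtained by non-linear regression of dose-response curves.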

c-Myc = c-Myc HTRF, CEM cell line; format: cell-based
Procedure: For additional evaluation of the effect of 43c in cell assays, an influence of the molecule on c-Myc expression was determined by c-Myc HTRF. c-Myc is a proto-oncogene that is often overexpressed in cancer. This leads to the increased expression of many genes, involved in cell proliferation, contributing to cancer development. Downregulation of c-Myc is considered as a promising approach for anticancer treatment.

Brd3(BD1) = Brd3(BD1) (Homo sapiens, UniProt Q15059); assay: Thermal shift assay (BromoMELT), Brd3 (BD1); format: binding; parameters: containing the 61 GST- or His-tagged-bromodomains; purchased Reaction Biology; settings: compound at 25 μM, cut-off +/−3.5° C.
Procedure: FIG. 3. Thermal Shift Assay (TSA) of 43c. The evaluation was performed on 61 bromodomains. A cut-off at +/−3.5° C. was set.
TSA “Bromoscan” assays (Reaction Biology) were performed in 384 well RT-PCR plate (BioRad) with a total working volume of 15 μL. The “BromoMelT™, containing the 61 GST- or His-tagged-bromodomains, SYPRO® Orange and a mix compounds as control, was purchased from Reaction Biology. For each point, 3 μL of protein (1×) and 12 μL master mix (buffer+SYPRO® Orange+compound at 25 μM or control mix compounds or DMSO (0.5%)) were mixed in plate. The plate was placed in a CFX384 RTQPC (BioRad), and heated 10 seconds at 25° C., then the temperature was increased from 25° C. to 90° C., by increment of 0.5° C. every 30 seconds. The fluorescence was recorded using FRET filters.

T2 sequence (Q15059 306-415 limits assumed): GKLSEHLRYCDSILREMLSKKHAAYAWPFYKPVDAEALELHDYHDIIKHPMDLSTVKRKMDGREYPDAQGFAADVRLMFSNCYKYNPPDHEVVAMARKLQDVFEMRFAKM
Brd3(BD1), sequence (Q15059 34-140 limits assumed): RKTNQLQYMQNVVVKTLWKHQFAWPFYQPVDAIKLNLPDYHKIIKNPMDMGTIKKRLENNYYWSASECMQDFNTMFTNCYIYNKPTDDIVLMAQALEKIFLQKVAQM

IC50 (Brdt(BD1)): 0.352 µM
IC50 (Brd3(BD2)): 2.17 µM
Kd (BRD4(BD1)): 0.09 µM
IC50 (Jurkat cells): 17.6 µM
ΔTm at 25 µM (Brd3(BD1)): 4.5 °C
SMILES: CCn1cnc2c1c(=O)[nH]c(=O)n2Cc1ccc(CNS(=O)(=O)c2ccc(OC3CCOCC3)c(F)c2)cc1 [Compound 43c]
concentration at which c-Myc is downregulated, CEM (c-Myc): 2.6 µM
